# From publication PMC9572521, “Synthesis, Docking Studies and Pharmacological Evaluation of Serotoninergic Ligands Containing a 5-Norbornene-2-Carboxamide Nucleus” (Molecules, 2022)
# Entries after “also recorded” stand apart in the source; their conditions may differ.
# Key:
# [1] = system: mice; test: Spontaneous locomotor activity; type: in vivo, mouse
# [2] = biological target: 5-HT2A receptor (Rattus norvegicus, UniProt P14842); test: 5-HT2A competition binding assay ([3H]ketanserin, frontal cortex homogenates); conditions: read-out: 5-HT2A Ki (95% CI)
# [3] = biological target: T1, human 5-HT2C receptor (Homo sapiens, UniProt P28335); test: 5-HT2C competition binding assay ([3H]mesulergine, transfected cell membranes); conditions: [3H]mesulergine, human 5-HT2C membranes; read-out: 5-HT2C Ki (95% CI)
# T1 sequence (P28335 33-458): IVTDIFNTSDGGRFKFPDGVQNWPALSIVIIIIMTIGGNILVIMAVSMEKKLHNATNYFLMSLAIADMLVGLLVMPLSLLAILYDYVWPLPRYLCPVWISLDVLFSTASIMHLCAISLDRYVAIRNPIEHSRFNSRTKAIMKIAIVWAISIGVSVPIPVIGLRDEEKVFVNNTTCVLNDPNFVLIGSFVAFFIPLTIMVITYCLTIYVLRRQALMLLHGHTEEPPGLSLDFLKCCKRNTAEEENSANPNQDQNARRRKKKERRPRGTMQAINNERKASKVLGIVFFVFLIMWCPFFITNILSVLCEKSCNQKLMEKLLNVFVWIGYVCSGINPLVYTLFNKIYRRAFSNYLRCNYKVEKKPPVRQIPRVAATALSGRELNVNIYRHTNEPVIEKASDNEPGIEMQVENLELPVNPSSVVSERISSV
# [4] = system: mice; test: Rota-rod test (motor coordination); type: in vivo, mouse; conditions: 30 mg/kg i.p., 60 min before the test
# Method: (§1) The experiments were carried out, in the Experimental Medicine Center of Medical University of Lublin, on six-week-old naive male Swiss mice, weighing 24–30 g. The mice were housed in cages, five individuals per cage in an environmentally controlled rooms (ambient temperature 22 ± 1 °C; relative humidity 50–60%; 12 h light/dark cycle, lights on at 8:00). Standard laboratory food(LSM-Agropol-Motycz, Lublin, Poland) and filtered water were available ad libitum. All the experimental procedures were carried out, according to the National Institute of Health Guidelines for the Care and Use of Laboratory Animals and to the European Community Council Directive for the Care and Use of Laboratory Animals of 22 September 2010 (2010/63/EU) and approved by the Local Ethics Committee for Animal Experimentation in Lublin. The investigated compounds (Norbo-4, Norbo-8, Norbo-10, Norbo-14, Norbo-18 and Norbo-20) in all tests were administered intraperitoneally (i.p.), dissolved in dimethyl sulfoxide (DMSO, final concentration of 0.1%) and then diluted by aqueous solution of 0.5% methylcellulose (tylose) and injected 60 min before the tests. […] All compounds were given in a volume of 10 mL/kg to mice. The control animals received an equivalent volume of the solvent at the respective time before the tests. All the experiments were conducted in the light phase between 09.00 a.m. and 14.00 p.m. The experiments were performed by an observer unaware of the treatment administered. The effects of investigated compounds on motor coordination were evaluated in the rota-rod and chimney tests. In the first test, motor impairments were measured, defined as the inability to keep balance on a rotating rod (at constant speed of 18 rpm) for 1 min. In the second test, motor impairments were assessed by mouse inability to climb up the tube backwards (3 cm in inner diameter, 25 cm long) within 60 s. Before the tests, the animals were trained once a day for 3 days. The animals able to stay on the rotating rod or to leave the chimney for 60 s were approved for experiments.
# [5] = system: mice; test: Chimney test (motor coordination); type: in vivo, mouse; conditions: 60 min before the test
# Method: as §1
# Chain of 5-HT2A receptor (P14842 whole entry): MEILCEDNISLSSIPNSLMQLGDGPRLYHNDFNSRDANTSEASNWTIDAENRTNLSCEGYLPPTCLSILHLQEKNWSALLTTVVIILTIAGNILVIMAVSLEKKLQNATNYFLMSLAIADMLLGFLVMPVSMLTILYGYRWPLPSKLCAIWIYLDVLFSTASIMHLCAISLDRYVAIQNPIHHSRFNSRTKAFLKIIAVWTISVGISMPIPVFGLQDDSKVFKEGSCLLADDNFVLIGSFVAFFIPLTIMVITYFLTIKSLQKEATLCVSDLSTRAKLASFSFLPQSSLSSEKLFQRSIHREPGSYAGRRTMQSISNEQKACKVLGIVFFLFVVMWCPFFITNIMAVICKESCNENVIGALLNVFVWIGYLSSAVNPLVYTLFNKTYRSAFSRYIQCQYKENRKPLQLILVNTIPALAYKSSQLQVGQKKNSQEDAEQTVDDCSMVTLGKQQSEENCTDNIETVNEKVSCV
smiles,measurement,setting,value
"Cc1cccc(N2CCN(CCCNC(=O)C3CC4C=CC3C4)CC2)c1C (stereo not drawn) [Norbo-4, endo-N-(3-(4-(2,3-dimethylphenyl)piperazin-1-yl)propyl)bicyclo[2.2.1]hept-5-ene-2-carboxamide]",spontaneous locomotor activity,"[1]; 15 mg/kg i.p., after 6 min of observation",significant decrease in locomotor activity; also recorded: induced the same effect
same,spontaneous locomotor activity,"[1]; 15 mg/kg i.p., after 20 min of observation",significant decrease in locomotor activity; also recorded: induced the same effect
same,spontaneous locomotor activity,"[1]; 30 mg/kg i.p., after 6 min of observation",significant decrease in locomotor activity
same,spontaneous locomotor activity,"[1]; 30 mg/kg i.p., after 20 min of observation",significant decrease in locomotor activity
same,Ki,[2],33.3 nM
same,Ki,[3],2090 nM
same,time on rota-rod,[4],decreased also time on rota-rod; also recorded: impaired motor coordination
same,time in chimney,[5]; 15 mg/kg i.p.,significant increase of time in chimney
same,time in chimney,[5]; 30 mg/kg i.p.,significant increase of time in chimney; also recorded: disturbed the behavior of mice
